Counter-ions that a name gives are not always drawn. Like-named read-outs stand apart in the source and are kept apart here.
Experiments:
H 460 (lung carcinoma) = assay: Antiproliferative activity in vitro (MTT assay); format: cell-based, human; settings: 72 h incubation, concentration that causes 50% growth inhibition
Protocol: (§1) The experiments were performed on four human cell lines, including HCT 116 (colon carcinoma), H 460 (lung carcinoma), MCF-7 (breast carcinoma), and HEK 293 (human embryonic kidney cells), in line with previously published experimental procedures. Briefly, the cells were grown in DMEM medium with the addition of 10% fetal bovine serum (FBS), 2 mM L-glutamine, 100 U/mL penicillin, and 100 µg/mL streptomycin, and cultured as monolayers at 37 °C in a humidified atmosphere with 5% CO2. Cells were seeded at 2 × 10^3 cells/well in a standard 96-well microtiter plates and left to attach for 24 h. The next day, a test compound was added in five serial 10-fold dilutions. The rate of cell growth was evaluated after 72 h of incubation with MTT assays. The obtained results are expressed as IC50 values, calculated from the concentration-response curve using linear regression analysis by fitting the test concentrations that give PG values above and below the reference value (i.e., 50%). Each test was performed in quadruplicate in at least two individual experiments.

[1] = test system: HCT 116 (colon carcinoma); assay: Antiproliferative activity in vitro (MTT assay); format: cell-based, human; settings: 72 h incubation, concentration that causes 50% growth inhibition, read-out: IC50 HCT116
Protocol: as §1

MCF-7 (breast carcinoma) = assay: Antiproliferative activity in vitro (MTT assay); format: cell-based, human; settings: 72 h incubation, concentration that causes 50% growth inhibition
Protocol: as §1

[2] = test system: HEK 293 (human embryonic kidney cells); assay: Cytotoxic activity on non-cancerous cells (MTT assay); format: cell-based; settings: Homo sapiens, HEK293; non-tumor cell line; 72 h incubation, MTT; concentration that causes 50% growth inhibition
Protocol: as §1

[3] = DPPH free radical scavenging; format: biochemical; set-up: key to DPPH IC50: –: Very low activity; settings: after 30 min of incubation with 100 μM DPPH
Protocol: The reducing activity of investigated systems was achieved by the DPPH method according to previously described procedures with modifications to assure the use in a 96-well microplate. Briefly, equal volumes of various concentrations of tested molecules (dissolved in DMSO) were added to the solution of DPPH (final concentration 50 µM in absolute ethanol). Ethanol and DMSO were used as control solutions in line with earlier reports.

[4] = Ferric reducing/antioxidant power (FRAP assay); format: biochemical; set-up: key to FRAP: –: Very low activity; settings: means ± standard deviation; absorbance at 593 nm
Protocol: The FRAP method was carried out according to previously described procedures with some modifications to be compatible with an assay on a 96-well microplate. All tests were done in triplicate, while the obtained results were averaged and reported as Fe^2+ equivalents (Fe^2+ µmol).
By using the FRAP assay, we investigated the reducing power of investigated systems, which was monitored by the corresponding changes in the absorbance at 593 nm. This method is based on the ability of systems to reduce the ferric tripyridyl triazine complex (TPTZ) to the ferrous state (Fe^2+), which can be seen by an intense blue color. […] Good reducing ability was shown by the trimethoxy substituted benzimidazole-2-carboxamide 14 bearing the amino group (1102.5 ± 14.1 mmolFe^2+/mmolC).

SMILES | IC50 (H 460 (lung carcinoma); Homo sapiens, NCI-H460, 72 h) [µM] | IC50 ([1]; Homo sapiens, HCT-116, 72 h) [µM] | IC50 (MCF-7 (breast carcinoma); Homo sapiens, MCF7, 72 h) [µM] | DPPH IC50 [3] | IC50 (MCF-7 (breast carcinoma)) [µM] | IC50 [3] [µM] | IC50 (H 460 (lung carcinoma)) [µM] | IC50 [1] [µM] | IC50 [2] [µM] | FRAP [4]
COc1ccccc1C(=O)Nc1nc2ccc(N)cc2[nH]1 [Compound 12, N-[5(6)-aminobenzimidazol-2-yl]-2-methoxybenzamide] | 39 ± 11 | 48 ± 4 |  |  | 53 ± 9 | 28.9 ± 1.03 |  |  |  | 256.3 ± 2.8 mmolFe^2+/mmolC
COc1cc(C(=O)Nc2nc3ccc([N+](=O)[O-])cc3s2)cc(OC)c1OC [Compound 11, 3,4,5-trimethoxy-N-(6-nitrobenzothiazol-2-yl)benzamide] | 23 ± 4 | 37 ± 0.8 | 17 ± 9 | – |  |  |  |  |  | 155.5 ± 3.0 mmolFe^2+/mmolC
COc1ccc(C(=O)Nc2nc3ccc(N)cc3[nH]2)c(OC)c1 [Compound 19, N-[5(6)-aminobenzimidazol-2-yl]-2,4-dimethoxybenzamide hydrochloride] |  |  |  |  | 34 ± 24 | 13.3 ± 0.8 | > 100 | ≥ 100 |  | 259.1 ± 0.6 mmolFe^2+/mmolC
COc1ccc(C(=O)Nc2nc3ccc(N)cc3[nH]2)c(O)c1 [Compound 32, N-[5(6)-aminobenzimidazol-2-yl]-2-hydroxy-4-methoxybenzamide] |  |  |  |  | 80 ± 4 | 29.5 ± 0.1 | ≥ 100 | 50 ± 13 |  | 304.3 ± 6.4 mmolFe^2+/mmolC
COc1ccccc1C(=O)Nc1nc2ccc([N+](=O)[O-])cc2s1 [Compound 9, 2-methoxy-N-(6-nitrobenzothiazol-2-yl)benzamide] | 46 ± 3 | 44 ± 25 | 9 ± 1 | – |  |  |  |  |  | 6.7 ± 0.6 mmolFe^2+/mmolC
O=C(Nc1nc2ccc([N+](=O)[O-])cc2[nH]1)c1ccccc1O [Compound 24, 2-hydroxy-N-[5(6)-nitrobenzimidazol-2-yl]benzamide] | 42 ± 20 | 61 ± 0.1 | 42 ± 7 | – |  |  |  |  |  | 39.1 ± 2.0 mmolFe^2+/mmolC
COc1cc(C(=O)Nc2nc3ccc(N)cc3s2)cc(OC)c1OC.Cl [Compound 23, N-(6-aminobenzothiazol-2-yl)-3,4,5-trimethoxybenzamide hydrochloride] |  |  |  |  |  | 1.5 ± 0.5 | 34 ± 9 | 50 ± 11 |  | 241.3 ± 1.6 mmolFe^2+/mmolC
COc1ccc(C(=O)Nc2nc3ccc(N)cc3[nH]2)c(OC)c1 [Compound 13, N-[5(6)-aminobenzimidazol-2-yl]-2,4-dimethoxybenzamide] |  |  | 20 ± 4 |  |  | 17.7 ± 2.81 | 24 ± 8 | 17 ± 8 |  | 238.4 ± 2.1 mmolFe^2+/mmolC
COc1cc(C(=O)Nc2nc3cc(N)ccc3[nH]2)cc(OC)c1OC.Cl [Compound 20, N-(6-aminobenzimidazol-2-yl)-3,4,5-trimethoxybenzamide hydrochloride] | > 100 | ≥ 100 | 34 ± 30 |  |  | 8.06 ± 0.03 |  |  |  | 267.4 ± 1.4 mmolFe^2+/mmolC
COc1ccccc1C(=O)Nc1nc2ccc(N)cc2[nH]1 [Compound 18, N-[5(6)-aminobenzimidazol-2-yl]-2-methoxybenzamide hydrochloride] |  |  |  |  | 23 ± 2 | 9.85 ± 0.003 | 36 ± 8 | 33 ± 7 |  | 267.2 ± 5.0 mmolFe^2+/mmolC
COc1ccc(C(=O)Nc2nc3ccc(N)cc3[nH]2)c(O)c1 [Compound 31, N-[5(6)-aminobenzimidazol-2-yl]-2-hydroxy-4-methoxybenzamide] | 75 ± 27 | 37 ± 7 | ≥ 100 |  |  | 9.2 ± 0.6 |  |  |  | 258.4 ± 6.4 mmolFe^2+/mmolC
Nc1ccc2nc(NC(=O)c3ccccc3O)[nH]c2c1 [Compound 30, N-[5(6)-aminobenzimidazol-2-yl]-2-hydroxybenzamide] | > 100 | 46 ± 0.2 | 30 ± 0.8 |  |  | 42.5 ± 0.5 |  |  |  | 272.6 ± 7.1 mmolFe^2+/mmolC

Continued, in another order:

IC50 (H 460 (lung carcinoma); Homo sapiens, NCI-H460, 72 h) [µM] | IC50 ([1]; Homo sapiens, HCT-116, 72 h) [µM] | IC50 (MCF-7 (breast carcinoma); Homo sapiens, MCF7, 72 h) [µM] | DPPH IC50 [3] | IC50 (MCF-7 (breast carcinoma)) [µM] | IC50 [3] [µM] | IC50 (H 460 (lung carcinoma)) [µM] | IC50 [1] [µM] | SMILES | IC50 [2] [µM] | FRAP [4]
43 ± 29 | 6 ± 1 | 5 ± 0.3 | – |  |  |  |  | COc1ccc(C(=O)Nc2nc3ccc(N)cc3s2)c(OC)c1 [Compound 16, N-(6-aminobenzothiazol-2-yl)-2,4-dimethoxybenzamide] | 11 ± 8 | 203.6 ± 5.8 mmolFe^2+/mmolC
6 ± 5 | 6 ± 1 | 4 ± 0.3 | – ^c |  |  |  |  | COc1ccccc1C(=O)Nc1nc2ccc([N+](=O)[O-])cc2[nH]1 [Compound 6, 2-methoxy-N-[5(6)-nitrobenzimidazol-2-yl]benzamide] | 3 ± 0.6 | 123.5 ± 2.8 mmolFe^2+/mmolC
8 ± 1 | 7 ± 0.4 | 10 ± 8 | – |  |  |  |  | COc1ccc(C(=O)Nc2nc3ccc([N+](=O)[O-])cc3s2)c(O)c1 [Compound 28, 2-hydroxy-4-methoxy-N-(6-nitrobenzothiazol-2-yl)benzamide] | 4 ± 2 | 39.8 ± 1.6 mmolFe^2+/mmolC
18 ± 0.01 | 31 ± 4 | 28 ± 6 | – |  |  |  |  | COc1ccc(C(=O)Nc2nc3ccc([N+](=O)[O-])cc3[nH]2)c(O)c1 [Compound 25, 2-hydroxy-4-methoxy-N-[5(6)-nitrobenzimidazol-2-yl]benzamide] |  | 150.4 ± 3.4 mmolFe^2+/mmolC
20 ± 3 | 9 ± 7 | 5 ± 2 | – |  |  |  |  | COc1ccc(C(=O)Nc2nc3ccc([N+](=O)[O-])cc3s2)c(OC)c1 [Compound 10, 2,4-dimethoxy-N-(6-nitrobenzothiazol-2-yl)benzamide] | 5 ± 1 | –
0.1 ± 0.04 | 5 ± 2 | 1 ± 0.7 |  |  |  |  |  | COc1cc([C@@H]2c3cc4c(cc3[C@@H](O[C@@H]3O[C@@H]5CO[C@@H](C)O[C@H]5[C@H](O)[C@H]3O)[C@H]3COC(=O)[C@H]23)OCO4)cc(OC)c1O [Etoposide, reference compound] | 1.6 ± 0.4 | 
3 ± 0.9 | 6 ± 4 | 3 ± 2 | – |  |  |  |  | COc1ccccc1C(=O)Nc1nc2ccc(N)cc2s1 [Compound 15, N-(6-aminobenzothiazol-2-yl)-2-methoxybenzamide] |  | 163.4 ± 4.7 mmolFe^2+/mmolC
 | 28 ± 4 |  |  | 5 ± 3 | 40.4 ± 0.4 | ≥ 100 |  | COc1cc(C(=O)Nc2nc3ccc(N)cc3s2)cc(OC)c1OC [Compound 17, N-(6-aminobenzothiazol-2-yl)-3,4,5-trimethoxybenzamide] |  | 235.4 ± 2.8 mmolFe^2+/mmolC

Reference: publication PMC6826492, “Experimental and Computational Study of the Antioxidative Potential of Novel Nitro and Amino Substituted Benzimidazole/Benzothiazole-2-Carboxamides with Antiproliferative Activity” (Antioxidants, 2019)
